Molecules are shown by their SMILES. Several values for one entry are separate records, joined by “and”; a condition that tells them apart may be missing. Equal entries are not always repeated.

26 molecules from ChEMBL document CHEMBL1212877, “Multipotent drugs with cholinergic and neuroprotective properties for the treatment of Alzheimer and neuronal vascular diseases. I. Synthesis, biological assessment, and molecular modeling of simple and readily available 2-aminopyridine-, and 2-chloropyridine-3,5-dicarbonitriles” (Bioorg Med Chem, 2010) can be followed below.

T1 sequence (O42275 whole entry): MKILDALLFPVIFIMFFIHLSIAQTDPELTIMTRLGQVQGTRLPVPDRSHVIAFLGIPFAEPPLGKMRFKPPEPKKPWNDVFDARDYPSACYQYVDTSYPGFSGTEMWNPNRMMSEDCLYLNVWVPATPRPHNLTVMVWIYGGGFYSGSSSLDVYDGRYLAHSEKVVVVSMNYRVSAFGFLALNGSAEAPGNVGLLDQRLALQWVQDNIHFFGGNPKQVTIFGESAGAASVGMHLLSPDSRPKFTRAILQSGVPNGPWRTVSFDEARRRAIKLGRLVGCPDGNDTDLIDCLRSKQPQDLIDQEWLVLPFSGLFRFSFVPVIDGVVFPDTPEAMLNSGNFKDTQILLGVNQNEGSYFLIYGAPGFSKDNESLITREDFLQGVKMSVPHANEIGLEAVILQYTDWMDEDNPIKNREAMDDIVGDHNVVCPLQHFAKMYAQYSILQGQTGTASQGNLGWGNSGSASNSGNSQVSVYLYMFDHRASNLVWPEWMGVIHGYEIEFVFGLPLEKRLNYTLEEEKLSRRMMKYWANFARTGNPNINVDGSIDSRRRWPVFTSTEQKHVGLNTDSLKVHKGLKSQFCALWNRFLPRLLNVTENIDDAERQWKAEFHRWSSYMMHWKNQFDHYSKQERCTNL

In the first assay the test system is SH-SY5Y. Kind of assay: Neuroprotective activity in human SH-SY5Y cells assessed as protection against rotenone/oligomycin-A-induced cell death at 1 uM after 24 hrs by LDH release assay relative to control. The format is functional. Background: LDH leaks from cells whose membrane has failed.
On to `CN(C)c1nc(N)c(C#N)cc1C#N`, for which the Activity amounted to 36.2%.

Take `N#Cc1cc(C#N)c(N2CCCCC2)nc1N`: the Activity is 14.8%.

For the molecule `N#Cc1cc(C#N)c(N2CCC(O)CC2)nc1N`, the Activity is given as 15.1%.

On to `N#Cc1cc(C#N)c(NCCO)nc1N`, for which the Activity is 3%.

For the molecule `N#Cc1c(N)nc(N2CCCCC2)c(C#N)c1-c1ccccc1`, the Activity is 10.7%.

Regarding `CCOc1nc(N)c(C#N)cc1C#N`, the Activity is given as 10.9%.

In the case of `N#Cc1c(N)nc(S)c(C#N)c1-c1ccccc1`, the Activity is 14.1%.

Regarding `N#Cc1cc(C#N)c(N2CCCC2)nc1Cl`, the Activity was 32%.

Turning to `N#Cc1cc(C#N)c(N2C3CCC2CC3)nc1Cl`, the Activity is given as 31.6%.

On to `N#Cc1c(Cl)nc(N2CCCC2)c(C#N)c1-c1ccccc1`, for which the Activity was 37.7%.

For `N#Cc1c(N)nc(Sc2ccccc2)c(C#N)c1-c1ccccc1`, the Activity was determined as 3.84%.

The subject of a further assay is SH-SY5Y. Kind of assay: Neuroprotective activity in human SH-SY5Y cells assessed as protection against rotenone/oligomycin-A-induced cell death at 1 uM after 24 hrs by MTT assay relative to control. The assay is classed as functional. In general terms: Tetrazolium assays rely on reduction of a dye to a coloured formazan, in cell work by metabolically active cells.
`CN(C)c1nc(N)c(C#N)cc1C#N`: the Activity amounted to 12.9%.

For `N#Cc1cc(C#N)c(N2CCCC2)nc1N`, the Activity amounted to 20.1%.

On to `N#Cc1cc(C#N)c(N2CCCCC2)nc1N`, for which the Activity came to 10.2%.

`N#Cc1cc(C#N)c(N2C3CCC2CC3)nc1N`: the Activity amounted to 0%.

As to `N#Cc1cc(C#N)c(N2CCC(O)CC2)nc1N`, the Activity is on record as 3%.

Take `N#Cc1cc(C#N)c(NCCO)nc1N`: the Activity is recorded as 21.4%.

Regarding `C#CCNc1nc(N)c(C#N)cc1C#N`, the Activity is 17.7%.

With `N#Cc1cc(C#N)c(N2CCC(Cc3ccccc3)CC2)nc1N`, the Activity worked out at 19.1%.

As for `CN(C)c1nc(N)c(C#N)c(-c2ccccc2)c1C#N`, the Activity is listed as 0%.

For `N#Cc1c(N)nc(N2CCCCC2)c(C#N)c1-c1ccccc1`, the Activity is given as 2.7%.

For `N#Cc1c(N)nc(N2C3CCC2CC3)c(C#N)c1-c1ccccc1`, the Activity is given as 0.7%.

For the molecule `N#Cc1c(N)nc(NCc2ccccc2)c(C#N)c1-c1ccccc1`, the Activity worked out at 10.6%.

With `COc1nc(N)c(C#N)cc1C#N`, the Activity amounted to 11%.

`CCOc1nc(N)c(C#N)cc1C#N`: the Activity stood at 32.9%.

For the molecule `N#Cc1cc(C#N)c(OCCCc2ccccc2)nc1N`, the Activity worked out at 0%.

Consider `N#Cc1c(N)nc(S)c(C#N)c1-c1ccccc1`, for which the Activity is 5.8%.

Consider `CN(C)c1nc(Cl)c(C#N)cc1C#N`, for which the Activity is reported as 6%.

`N#Cc1cc(C#N)c(N2CCCC2)nc1Cl`: the Activity is listed as 7.5%.

With `N#Cc1cc(C#N)c(N2CCCCC2)nc1Cl`, the Activity came out at 14.7%.

As for `N#Cc1cc(C#N)c(N2C3CCC2CC3)nc1Cl`, the Activity came out at 7.5%.

Take `CN(C)c1nc(Cl)c(C#N)c(-c2ccccc2)c1C#N`: the Activity is recorded as 0%.

Turning to `N#Cc1c(Cl)nc(N2CCCC2)c(C#N)c1-c1ccccc1`, the Activity amounted to 7.5%.

`N#Cc1c(Cl)nc(N2CCCCC2)c(C#N)c1-c1ccccc1`: the Activity is on record as 0%.

Consider `N#Cc1c(Cl)nc(N2C3CCC2CC3)c(C#N)c1-c1ccccc1`, for which the Activity worked out at 12.9%.

For the molecule `N#Cc1c(N)nc(Sc2ccccc2)c(C#N)c1-c1ccccc1`, the Activity was determined as 11.2%.

Another assay has as its target T1, Acetylcholinesterase (Electrophorus electricus, UniProt O42275). The assay can be described thus: Binding affinity to Electrophorus electricus AChE peripheral anionic site.
What is called Ki is a dissociation constant, usually derived from enzyme kinetics or from competition with a known ligand. Turning to `CC[N+](C)(CC)CCC[n+]1c(-c2ccccc2)c2cc(N)ccc2c2ccc(N)cc21` [PROPIDIUM], the Ki is 8.6 µM and 8.9 µM.

A further assay concerns the target T1, Acetylcholinesterase. The assay can be described thus: Inhibition of Electrophorus electricus AChE after 10 mins by Ellman's method. (In general: DTNB colorimetry detects thiols as they appear.)
A word on the IC50: it is the concentration that gives 50% inhibition. A lower IC50 goes with higher potency. As to `CN(C)c1nc(N)c(C#N)cc1C#N`, the IC50 was 22.7 µM.

`N#Cc1cc(C#N)c(N2CCCC2)nc1N`: the IC50 was 3.5 µM.

For the molecule `N#Cc1cc(C#N)c(N2CCCCC2)nc1N`, the IC50 is > 100 µM.

Take `N#Cc1cc(C#N)c(N2C3CCC2CC3)nc1N`: the IC50 was > 100 µM.

As to `N#Cc1cc(C#N)c(N2CCC(O)CC2)nc1N`, the IC50 was > 100 µM.

For the molecule `N#Cc1cc(C#N)c(NCCO)nc1N`, the IC50 was > 100 µM.

In the case of `C#CCNc1nc(N)c(C#N)cc1C#N`, the IC50 was > 100 µM.

With `N#Cc1cc(C#N)c(N2CCC(Cc3ccccc3)CC2)nc1N`, the IC50 was > 100 µM.

In the case of `CN(C)c1nc(N)c(C#N)c(-c2ccccc2)c1C#N`, the IC50 was > 100 µM.

`N#Cc1c(N)nc(N2CCCCC2)c(C#N)c1-c1ccccc1`: the IC50 was > 100 µM.

As to `N#Cc1c(N)nc(N2C3CCC2CC3)c(C#N)c1-c1ccccc1`, the IC50 was > 100 µM.

For the molecule `N#Cc1c(N)nc(NCc2ccccc2)c(C#N)c1-c1ccccc1`, the IC50 was > 100 µM.

As for `COc1nc(N)c(C#N)cc1C#N`, the IC50 was > 100 µM.

As to `CCOc1nc(N)c(C#N)cc1C#N`, the IC50 is > 100 µM.

As for `N#Cc1cc(C#N)c(OCCCc2ccccc2)nc1N`, the IC50 is > 100 µM.

On to `N#Cc1c(N)nc(S)c(C#N)c1-c1ccccc1`, for which the IC50 is > 100 µM.

Consider `CN(C)c1nc(Cl)c(C#N)cc1C#N`, for which the IC50 turned out to be 5 µM.

Consider `N#Cc1cc(C#N)c(N2CCCC2)nc1Cl`, for which half-maximal inhibition (IC50) required 0.8 µM.

As to `N#Cc1cc(C#N)c(N2CCCCC2)nc1Cl`, half-maximal inhibition (IC50) was put at 9.5 µM.

The molecule `N#Cc1cc(C#N)c(N2C3CCC2CC3)nc1Cl` returned an IC50 of 75 µM.

The molecule `CN(C)c1nc(Cl)c(C#N)c(-c2ccccc2)c1C#N` gave an IC50 of 10 µM.

For `N#Cc1c(Cl)nc(N2CCCC2)c(C#N)c1-c1ccccc1`, the IC50 was 5.6 µM.

Consider `N#Cc1c(Cl)nc(N2CCCCC2)c(C#N)c1-c1ccccc1`, for which the IC50 was > 100 µM.

As to `N#Cc1c(Cl)nc(N2C3CCC2CC3)c(C#N)c1-c1ccccc1`, the IC50 is > 100 µM.

For the molecule `N#Cc1c(N)nc(Sc2ccccc2)c(C#N)c1-c1ccccc1`, the IC50 is > 100 µM.

In a further assay the target is Butyrylcholinesterase (Equus caballus, UniProt Q9N1N9). Kind of assay: Inhibition of equine serum BuChE after 10 mins by Ellman's method.
Butyrylcholinesterase, sequence (Q9N1N9 whole entry): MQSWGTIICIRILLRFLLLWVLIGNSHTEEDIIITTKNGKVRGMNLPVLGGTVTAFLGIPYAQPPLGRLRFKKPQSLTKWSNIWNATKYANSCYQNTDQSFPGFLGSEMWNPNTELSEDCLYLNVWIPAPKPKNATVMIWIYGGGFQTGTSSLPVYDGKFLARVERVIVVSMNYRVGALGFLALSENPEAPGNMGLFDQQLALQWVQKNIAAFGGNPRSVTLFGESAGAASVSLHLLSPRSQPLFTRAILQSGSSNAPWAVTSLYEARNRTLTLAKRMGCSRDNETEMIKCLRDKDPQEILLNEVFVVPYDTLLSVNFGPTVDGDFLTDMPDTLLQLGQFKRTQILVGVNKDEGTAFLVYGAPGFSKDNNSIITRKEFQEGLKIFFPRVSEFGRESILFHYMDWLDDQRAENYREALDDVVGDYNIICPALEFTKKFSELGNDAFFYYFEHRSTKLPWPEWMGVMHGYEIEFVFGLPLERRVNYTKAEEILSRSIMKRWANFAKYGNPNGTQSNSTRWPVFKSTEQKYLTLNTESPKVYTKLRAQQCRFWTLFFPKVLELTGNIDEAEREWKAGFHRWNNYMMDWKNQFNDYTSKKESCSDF
Regarding `CN(C)c1nc(N)c(C#N)cc1C#N`, the IC50 was > 100 µM.

In the case of `N#Cc1cc(C#N)c(N2CCCC2)nc1N`, the IC50 was > 100 µM.

`N#Cc1cc(C#N)c(N2CCCCC2)nc1N` displayed an IC50 of 26 µM.

For the molecule `N#Cc1cc(C#N)c(N2C3CCC2CC3)nc1N`, the IC50 was > 100 µM.

For the molecule `N#Cc1cc(C#N)c(N2CCC(O)CC2)nc1N`, the IC50 is > 100 µM.

Take `N#Cc1cc(C#N)c(NCCO)nc1N`: the IC50 is > 100 µM.

In the case of `C#CCNc1nc(N)c(C#N)cc1C#N`, the IC50 is > 100 µM.

With `N#Cc1cc(C#N)c(N2CCC(Cc3ccccc3)CC2)nc1N`, the IC50 is > 100 µM.

Turning to `CN(C)c1nc(N)c(C#N)c(-c2ccccc2)c1C#N`, the IC50 was > 100 µM.

With `N#Cc1c(N)nc(N2CCCCC2)c(C#N)c1-c1ccccc1`, the IC50 was > 100 µM.

Regarding `N#Cc1c(N)nc(N2C3CCC2CC3)c(C#N)c1-c1ccccc1`, the IC50 worked out at 3.8 µM.

For `N#Cc1c(N)nc(NCc2ccccc2)c(C#N)c1-c1ccccc1`, the half-maximal inhibitory concentration (IC50) is > 100 µM.

For the molecule `COc1nc(N)c(C#N)cc1C#N`, the IC50 was > 100 µM.

Regarding `CCOc1nc(N)c(C#N)cc1C#N`, the IC50 was > 100 µM.

Turning to `N#Cc1cc(C#N)c(OCCCc2ccccc2)nc1N`, the IC50 is > 100 µM.

With `N#Cc1c(N)nc(S)c(C#N)c1-c1ccccc1`, the IC50 is > 100 µM.

As for `CN(C)c1nc(Cl)c(C#N)cc1C#N`, the IC50 is > 100 µM.

Turning to `N#Cc1cc(C#N)c(N2CCCC2)nc1Cl`, the IC50 was > 100 µM.

For the molecule `N#Cc1cc(C#N)c(N2CCCCC2)nc1Cl`, the IC50 is > 100 µM.

Turning to `N#Cc1cc(C#N)c(N2C3CCC2CC3)nc1Cl`, half-maximal inhibition (IC50) required 24 µM.

As to `CN(C)c1nc(Cl)c(C#N)c(-c2ccccc2)c1C#N`, the IC50 is > 100 µM.

Regarding `N#Cc1c(Cl)nc(N2CCCC2)c(C#N)c1-c1ccccc1`, the IC50 is > 100 µM.

Consider `N#Cc1c(Cl)nc(N2CCCCC2)c(C#N)c1-c1ccccc1`, for which the IC50 was > 100 µM.

Consider `N#Cc1c(Cl)nc(N2C3CCC2CC3)c(C#N)c1-c1ccccc1`, for which the IC50 was > 100 µM.

Regarding `N#Cc1c(N)nc(Sc2ccccc2)c(C#N)c1-c1ccccc1`, the IC50 was > 100 µM.

For the next assay, the target named is T1, Acetylcholinesterase. Kind of assay: Non competitive inhibition of Electrophorus electricus AChE by Lineweaver-Burke plot analysis.
Molecule `N#Cc1cc(C#N)c(N2CCCCC2)nc1Cl` displayed a Ki of 17.2 µM.
